From patent US8470830B2, “5-(heterocyclyl)alkyl-N-(arylsulfonyl)indole compounds and their use as 5-HT6 ligands” (Suven Life Sciences Limited, priority 2007, dated 2013)
pKi: −log10 of the molar value. Structures can show the parent of a compound that is named as a salt. Where two headings read alike, the source gives them in different places.

Experiments:
Human 5-HT6 Receptor = target: T1, Human 5-HT6 Receptor (Homo sapiens, UniProt P50406); assay: Binding assay for human 5-HT6 receptor ([3H]LSD radioligand)
T1 construct: expressed in transfected cells; host or cells: HEK293
Procedure: Compounds can be tested according to the following the procedures.
Receptor source: Human recombinant expressed in HEK293 cells
Radioligand [^3H]LSD (60-80 Ci/mmol)
Non-specific determinant: Methiothepin mesylate—[0.1 μM]
Reference compound: Methiothepin mesylate
Positive control: Methiothepin mesylate
Reactions were carried out in […] TRIS-HCl (pH 7.4) containing 10 μM MgCl2, 0.5 mM EDTA for 60 minutes at 37° C. The reaction was terminated by rapid vacuum filtration onto glass fiber filters. Radioactivity trapped onto the filters was determined and compared to control values in order to ascertain any interactions of test compound(s) with the cloned serotonin 5-HT6 binding site.
Literature Reference: Monsma F. J. Jr., et al., Molecular Cloning and Expression of Novel Serotonin Receptor with High Affinity for Tricyclic Psychotropic Drugs.

[1] = system: animal models for schizophrenia; conditions: literature (Pouzet et al. 2002); cited from earlier work
5-HT6 receptor = conditions: literature; cited from earlier work
[2] = human recombinant receptor in HEK293 cells, [3H]LSD 1.5 nM, 60 minutes at 37° C., read-out: Radio-ligand binding data at 5-HT6 (h) Ki

T1 sequence (P50406 whole entry): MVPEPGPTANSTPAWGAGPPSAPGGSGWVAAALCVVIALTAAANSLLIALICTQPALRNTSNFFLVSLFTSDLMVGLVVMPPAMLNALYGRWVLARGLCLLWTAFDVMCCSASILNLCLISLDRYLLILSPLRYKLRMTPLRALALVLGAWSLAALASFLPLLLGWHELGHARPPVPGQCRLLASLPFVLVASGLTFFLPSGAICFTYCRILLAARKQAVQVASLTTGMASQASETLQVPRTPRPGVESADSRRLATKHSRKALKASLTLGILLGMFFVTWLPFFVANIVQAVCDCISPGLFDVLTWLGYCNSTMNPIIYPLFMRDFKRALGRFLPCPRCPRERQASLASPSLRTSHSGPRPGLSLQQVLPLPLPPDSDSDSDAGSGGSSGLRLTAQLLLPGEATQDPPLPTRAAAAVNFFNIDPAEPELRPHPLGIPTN

| SMILES | melting point [°C] | pKi (Human 5-HT6 Receptor; [2]) | other results |
| --- | --- | --- | --- |
| CCN1CCN(Cc2ccc3c(ccn3S(=O)(=O)c3ccc(Br)cc3)c2)CC1.Cl.Cl | 264.5 to 267 | – | – |
| CCN1CCN(Cc2ccc3c(ccn3S(=O)(=O)c3cccc(C(F)(F)F)c3)c2)CC1.Cl.Cl | 265 to 270 | – | – |
| CCN1CCN(Cc2ccc3c(ccn3S(=O)(=O)c3ccc(C)cc3)c2)CC1.Cl.Cl | 263 to 267 | – | – |
| CCN1CCN(Cc2ccc3c(ccn3S(=O)(=O)c3ccccc3)c2)CC1.Cl.Cl | 266 to 270.5 | – | – |
| CCN1CCN(Cc2ccc3c(ccn3S(=O)(=O)c3ccc(Cl)cc3)c2)CC1.Cl.Cl | 265 to 269 | – | – |
| CCN1CCN(Cc2ccc3c(ccn3S(=O)(=O)c3ccc(OC)cc3)c2)CC1.Cl.Cl | 254 to 258 | – | – |
| CN1CCN(Cc2ccc3c(ccn3S(=O)(=O)c3ccccc3)c2)CC1.Cl.Cl [Compound 1, 1-Benzenesulfonyl-5-(4-methylpiperazin-1-ylmethyl)-1H-indole dihydrochloride] | 266 to 270.5 | 8.42 | – |
| CN1CCN(Cc2ccc3c(ccn3S(=O)(=O)c3ccc(F)cc3)c2)CC1 [Compound 3, 1-(4-Fluorobenzenesulfonyl)-5-(4-methylpiperazin-1-ylmethyl)-1H-indole] | – | 7.84 | – |
| CC(C)c1ccc(S(=O)(=O)n2ccc3cc(CN4CCN(C)CC4)ccc32)cc1 [Compound 5, 1-[4-(1-Methylethyl)benzenesulfonyl]-5-(4-methylpiperazin-1-ylmethyl)-1H-indole] | – | 7.75 | – |
| Cl.Cl.O=S(=O)(c1ccccc1Br)n1ccc2cc(CN3CCNCC3)ccc21 [Compound 31, 1-(2-Bromobenzenesulfonyl)-5-(piperazin-1-ylmethyl)-1H-indole dihydrochloride] | 264.2 to 266.9 | 8.11 | – |
| Cl.Cl.O=S(=O)(c1ccc(F)cc1F)n1cc(Cl)c2cc(CN3CCNCC3)ccc21 [Compound 32, 1-(2,4-Difluorobenzenesulfonyl)-3-chloro-5-(piperazin-1-ylmethyl)-1H-indole dihydrochloride] | 241.5 to 246.1 | – | pKi (Human 5-HT6 Receptor): 8.24 |
| COc1ccc(NS(=O)(=O)c2sc3ccc(Cl)cc3c2C)cc1N1CCNCC1 [SB-271046, 5-Chloro-N-(4-methoxy-3-piperazin-1-ylphenyl)-3-methyl-2-benzothiophenesulfonamide] | – | – | activity in animal tests related to positive or negative symptoms of schizophrenia [1]: inactive |
| CN(C)CCC=C1c2ccccc2CCc2ccccc21 [amitriptyline] | – | – | affinity for the 5-HT6 receptor (5-HT6 receptor): high affinity |
| CN1CCN2c3ccccc3Cc3ccccc3C2C1 (stereo not drawn) [mianserin] | – | – | affinity for the 5-HT6 receptor (5-HT6 receptor): high affinity |

Second part, led by results:

| melting point [°C] | pKi (Human 5-HT6 Receptor; [2]) | SMILES | other results |
| --- | --- | --- | --- |
| 287 to 290 | – | CN1CCN(Cc2ccc3c(c2)c(Cl)cn3S(=O)(=O)c2cc(C(F)(F)F)ccc2Cl)CC1 (as salt: hydrochloride) [Compound 27, 1-(2-Chloro-5-trifluoromethylbenznesulfonyl)-3-chloro-5-(4-methylpiperazin-1-ylmethyl)-1H-indole dihydrochloride] | – |
| 265 to 270 | 8.49 | CCN1CCN(Cc2ccc3c(ccn3S(=O)(=O)c3ccc(F)cc3)c2)CC1.Cl.Cl [Compound 7, 1-(4-Fluorobenzenesulfonyl)-5-(4-ethylpiperazin-1-ylmethyl)-1H-indole dihydrochloride] | – |
| 258 to 261 | 8.24 | CCN1CCN(Cc2ccc3c(ccn3S(=O)(=O)c3ccc(C(C)C)cc3)c2)CC1.Cl.Cl [Compound 8, 1-[4-{1-Methylethyl)benzenesulfonyl]-5-(4-ethylpiperazin-1-ylmethyl)-1H-indole dihydrochloride] | – |
| 271 to 274.5 | 7.91 | CCN1CCN(Cc2ccc3c(ccn3S(=O)(=O)c3ccc(F)cc3F)c2)CC1.Cl.Cl [Compound 10, 1-(2,4-Difluorobenzenesulfonyl)-5-(4-ethylpiperazin-1-ylmethyl)-1H-indole dihydrochloride] | – |
| 273.5 to 277 | 8.26 | CCN1CCN(Cc2ccc3c(ccn3S(=O)(=O)c3cccc(Cl)c3Cl)c2)CC1.Cl.Cl [Compound 14, 1-(2,3-Dichlorobenzenesulfonyl)-5-(4-ethylpiperazin-1-ylmethyl)-1H-indole dihydrochloride] | – |
| 255.5 to 259 | 8.59 | CCN1CCN(Cc2ccc3c(ccn3S(=O)(=O)c3ccccc3Br)c2)CC1.Cl.Cl [Compound 15, 1-(2-Bromobenzenesulfonyl)-5-(4-ethylpiperazin-1-ylmethyl)-1H-indole dihydrochloride] | – |
| – | 7.95 | CN1CCN(Cc2ccc3c(ccn3S(=O)(=O)c3cc(C(F)(F)F)ccc3Cl)c2)CC1 [Compound 19, 1-(2-Chloro-5-trifluoromethylbenzenesulfonyl)-5-(4-methylpiperazin-1-ylmethyl)-1H-indole] | – |
| – | 8.08 | CN1CCN(Cc2ccc3c(ccn3S(=O)(=O)c3ccccc3Br)c2)CC1 [Compound 20, 1-(2-Bromobenzenesulfonyl)-5-(4-methylpiperazin-1-ylmethyl)-1H-indole] | – |
| – | 7.74 | CN1CCN(Cc2ccc3c(ccn3S(=O)(=O)c3cccc(Cl)c3Cl)c2)CC1 [Compound 21, 1-(2,3-Dichlorobenzenesulfonyl)-5-(4-methylpiperazin-1-ylmethyl)-1H-indole] | – |
| – | 8.52 | CN1CCN(Cc2ccc3c(ccn3S(=O)(=O)c3ccc(Cl)cc3)c2)CC1 [Compound 22, 1-(4-Chlorobenzenesulfonyl)-5-(4-methylpiperazin-1-ylmethyl)-1H-indole] | – |
| 139.2 to 140.4 | – | CN1CCN(Cc2ccc3c(c2)c(Cl)cn3S(=O)(=O)c2ccc(Cl)cc2)CC1 [Compound 24, 1-(4-Chlorobenzenesulfonyl)-3-chloro-5-(4-methylpiperazin-1-ylmethyl)-1H-indole] | – |
| 118.8 to 120.1 | 8.53 | CN1CCN(Cc2ccc3c(c2)c(Cl)cn3S(=O)(=O)c2ccc(F)cc2)CC1 [Compound 25, 1-(4-Fluorobenzenesulfonyl)-3-chloro-5-(4-methylpiperazin-1-ylmethyl)-1H-indole] | – |
| 251.85 to 253 | 8.47 | CN1CCN(Cc2ccc3c(c2)c(Cl)cn3S(=O)(=O)c2ccc(F)cc2F)CC1.Cl.Cl [Compound 26, 1-(2,4-Difluorobenzenesulfonyl)-3-chloro-5-(4-methylpiperazin-1-ylmethyl)-1H-indole dihydrochloride] | – |
| – | 8.38 | CN1CCN(Cc2ccc3c(c2)c(Cl)cn3S(=O)(=O)c2cc(C(F)(F)F)ccc2Cl)CC1 [Compound 27, 1-(2-Chloro-5-trifluoromethylbenznesulfonyl)-3-chloro-5-(4-methylpiperazin-1-ylmethyl)-1H-indole dihydrochloride] | – |
| – | 6.56 | CC(C)Oc1c(CN2CCN(C)CC2)ccc2c1ccn2S(=O)(=O)c1ccc(F)cc1 [Compound 28, 1-(4-Fluorobenznesulfonyl)-4-isopropoxy-5-(4-methylpiperazin-1-ylmethyl)-1H-indole] | – |
| 254 to 259.6 | 8.59 | Cl.Cl.O=S(=O)(c1ccc(F)cc1)n1cc(Cl)c2cc(CN3CCNCC3)ccc21 [Compound 30, 1-(4-Fluorobenzenesulfonyl)-3-chloro-5-(piperazin-1-ylmethyl)-1H-indole dihydrochloride] | – |
| 250.4 to 256.2 | 8.60 | Cl.Cl.O=S(=O)(c1ccccc1)n1ccc2cc(CN3CCNCC3)ccc21 [Compound 33, 1-(Benzenesulfonyl)-5-(piperazin-1-ylmethyl)-1H-indole dihydrochloride] | – |
| 250 to 254 | 7.83 | CC(C)c1ccc(S(=O)(=O)n2ccc3cc(CN4CCNCC4)ccc32)cc1.Cl.Cl [Compound 34, 1-[4-(1-Methylethyl)benzenesulfonyl]-5-(piperazin-1-ylmethyl)-1H-indole dihydrochloride] | – |
